Test results: PMC6199309, “A therapeutic approach to pantothenate kinase associated neurodegeneration” (Nature Communications, 2018)

How the values were obtained:
[1] = molecular target: T1, PLK3 (Homo sapiens, UniProt Q9H4B4); experiment: KINOMEscan; assay type: binding; conditions: read-out: %Ctrl @ 10000nM
T1 construct: purchased DiscoverX KINOMEscan

[2] = molecular target: T2, LCK (Homo sapiens, UniProt P06239); experiment: KINOMEscan; assay type: binding; conditions: read-out: %Ctrl @ 10000nM
T2 construct: purchased DiscoverX KINOMEscan

[3] = molecular target: T3, JNK3 (Homo sapiens, UniProt P53779); experiment: KINOMEscan; assay type: binding; conditions: read-out: %Ctrl @ 10000nM
T3 construct: purchased DiscoverX KINOMEscan
T3 sequence (P53779 whole entry): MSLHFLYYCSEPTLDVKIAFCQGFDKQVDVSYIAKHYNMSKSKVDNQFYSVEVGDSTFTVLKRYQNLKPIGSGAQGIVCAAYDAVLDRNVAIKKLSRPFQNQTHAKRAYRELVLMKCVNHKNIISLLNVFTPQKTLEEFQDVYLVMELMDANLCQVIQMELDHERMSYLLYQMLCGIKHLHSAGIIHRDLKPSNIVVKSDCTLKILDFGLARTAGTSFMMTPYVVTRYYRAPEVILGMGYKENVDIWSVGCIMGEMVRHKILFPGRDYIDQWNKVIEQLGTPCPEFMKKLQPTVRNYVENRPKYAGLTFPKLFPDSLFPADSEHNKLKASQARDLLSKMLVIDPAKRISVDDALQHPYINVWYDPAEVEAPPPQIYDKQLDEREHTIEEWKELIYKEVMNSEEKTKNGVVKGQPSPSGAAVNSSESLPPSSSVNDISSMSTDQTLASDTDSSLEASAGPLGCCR

[4] = molecular target: T4, JNK2 (Homo sapiens, UniProt P45984); experiment: KINOMEscan; assay type: binding; conditions: read-out: %Ctrl @ 10000nM
T4 construct: purchased DiscoverX KINOMEscan

[5] = molecular target: T5, ASK1 (Homo sapiens, UniProt Q99683); experiment: KINOMEscan; assay type: binding; conditions: read-out: %Ctrl @ 10000nM
T5 construct: purchased DiscoverX KINOMEscan

[6] = molecular target: T6, FGFR3(G697C) (Homo sapiens, UniProt P22607, G697C); experiment: KINOMEscan; assay type: binding; conditions: read-out: %Ctrl @ 10000nM
T6 construct: purchased DiscoverX KINOMEscan

[7] = molecular target: T7, PIK3CG (Homo sapiens, UniProt P48736); experiment: KINOMEscan; assay type: binding; conditions: read-out: %Ctrl @ 10000nM
T7 construct: purchased DiscoverX KINOMEscan

[8] = PAMPA; conditions: PAMPA
[9] = molecular target: T8, CDK8 (Homo sapiens, UniProt P49336); experiment: KINOMEscan; assay type: binding; conditions: read-out: %Ctrl @ 10000nM
T8 construct: purchased DiscoverX KINOMEscan

[10] = molecular target: T9, HIPK2 (Homo sapiens, UniProt Q9H2X6); experiment: KINOMEscan; assay type: binding; conditions: read-out: %Ctrl @ 10000nM
T9 construct: purchased DiscoverX KINOMEscan

[11] = molecular target: T10, PRKD2 (Homo sapiens, UniProt Q9BZL6); experiment: KINOMEscan; assay type: binding; conditions: read-out: %Ctrl @ 10000nM
T10 construct: purchased DiscoverX KINOMEscan

[12] = molecular target: T11, ABL1(H396P)-nonphosphorylated (Homo sapiens, UniProt P00519, H396P); experiment: KINOMEscan; assay type: binding; conditions: read-out: %Ctrl @ 10000nM
T11 construct: purchased DiscoverX KINOMEscan

[13] = molecular target: T12, ABL1(M351T)-phosphorylated (Homo sapiens, UniProt P00519, M351T); experiment: KINOMEscan; assay type: binding; conditions: read-out: %Ctrl @ 10000nM
T12 construct: purchased DiscoverX KINOMEscan

[14] = molecular target: T13, MYLK (Homo sapiens, UniProt Q15746); experiment: KINOMEscan; assay type: binding; conditions: read-out: %Ctrl @ 10000nM
T13 construct: purchased DiscoverX KINOMEscan

[15] = molecular target: T14, RSK4(Kin.Dom.1-N-terminal) (Homo sapiens, UniProt Q9UK32); experiment: KINOMEscan; assay type: binding; conditions: read-out: %Ctrl @ 10000nM
T14 construct: RSK4(Kin.Dom.1-N-terminal); purchased DiscoverX KINOMEscan

[16] = molecular target: T15, STK39 (Homo sapiens, UniProt Q9UEW8); experiment: KINOMEscan; assay type: binding; conditions: read-out: %Ctrl @ 10000nM
T15 construct: purchased DiscoverX KINOMEscan

[17] = molecular target: T16, CDK7 (Homo sapiens, UniProt P50613); experiment: KINOMEscan; assay type: binding; conditions: read-out: %Ctrl @ 10000nM
T16 construct: purchased DiscoverX KINOMEscan
T16 sequence (P50613 whole entry): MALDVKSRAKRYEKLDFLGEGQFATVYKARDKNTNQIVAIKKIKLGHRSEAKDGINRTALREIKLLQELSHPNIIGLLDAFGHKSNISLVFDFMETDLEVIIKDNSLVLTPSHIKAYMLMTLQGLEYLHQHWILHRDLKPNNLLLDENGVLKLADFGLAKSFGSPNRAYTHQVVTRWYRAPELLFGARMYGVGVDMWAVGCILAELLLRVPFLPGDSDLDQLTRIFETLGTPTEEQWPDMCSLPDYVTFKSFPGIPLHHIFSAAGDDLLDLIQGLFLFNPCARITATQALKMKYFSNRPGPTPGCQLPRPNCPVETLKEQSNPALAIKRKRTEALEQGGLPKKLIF

[18] = molecular target: T17, PIKFYVE (Homo sapiens, UniProt Q9Y2I7); experiment: KINOMEscan; assay type: binding; conditions: read-out: %Ctrl @ 10000nM
T17 construct: purchased DiscoverX KINOMEscan

[19] = molecular target: T18, CAMK1 (Homo sapiens, UniProt Q14012); experiment: KINOMEscan; assay type: binding; conditions: read-out: %Ctrl @ 10000nM
T18 construct: purchased DiscoverX KINOMEscan

[20] = molecular target: T19, NEK7 (Homo sapiens, UniProt Q8TDX7); experiment: KINOMEscan; assay type: binding; conditions: read-out: %Ctrl @ 10000nM
T19 construct: purchased DiscoverX KINOMEscan

[21] = molecular target: T20, CASK (Homo sapiens, UniProt O14936); experiment: KINOMEscan; assay type: binding; conditions: read-out: %Ctrl @ 10000nM
T20 construct: purchased DiscoverX KINOMEscan

[22] = molecular target: T21, PHKG1 (Homo sapiens, UniProt Q16816); experiment: KINOMEscan; assay type: binding; conditions: read-out: %Ctrl @ 10000nM
T21 construct: purchased DiscoverX KINOMEscan

[23] = molecular target: T22, GAK (Homo sapiens, UniProt O14976); experiment: KINOMEscan; assay type: binding; conditions: read-out: %Ctrl @ 10000nM
T22 construct: purchased DiscoverX KINOMEscan

[24] = molecular target: T23, SRC (Homo sapiens, UniProt P12931); experiment: KINOMEscan; assay type: binding; conditions: read-out: %Ctrl @ 10000nM
T23 construct: purchased DiscoverX KINOMEscan

[25] = molecular target: T24, DDR2 (Homo sapiens, UniProt Q16832); experiment: KINOMEscan; assay type: binding; conditions: read-out: %Ctrl @ 10000nM
T24 construct: purchased DiscoverX KINOMEscan

[26] = Protein binding; conditions: rat
[27] = molecular target: T25, LRRK2 (Homo sapiens, UniProt Q5S007); experiment: KINOMEscan; assay type: binding; conditions: read-out: %Ctrl @ 10000nM
T25 construct: purchased DiscoverX KINOMEscan
T25 sequence (Q5S007 whole entry): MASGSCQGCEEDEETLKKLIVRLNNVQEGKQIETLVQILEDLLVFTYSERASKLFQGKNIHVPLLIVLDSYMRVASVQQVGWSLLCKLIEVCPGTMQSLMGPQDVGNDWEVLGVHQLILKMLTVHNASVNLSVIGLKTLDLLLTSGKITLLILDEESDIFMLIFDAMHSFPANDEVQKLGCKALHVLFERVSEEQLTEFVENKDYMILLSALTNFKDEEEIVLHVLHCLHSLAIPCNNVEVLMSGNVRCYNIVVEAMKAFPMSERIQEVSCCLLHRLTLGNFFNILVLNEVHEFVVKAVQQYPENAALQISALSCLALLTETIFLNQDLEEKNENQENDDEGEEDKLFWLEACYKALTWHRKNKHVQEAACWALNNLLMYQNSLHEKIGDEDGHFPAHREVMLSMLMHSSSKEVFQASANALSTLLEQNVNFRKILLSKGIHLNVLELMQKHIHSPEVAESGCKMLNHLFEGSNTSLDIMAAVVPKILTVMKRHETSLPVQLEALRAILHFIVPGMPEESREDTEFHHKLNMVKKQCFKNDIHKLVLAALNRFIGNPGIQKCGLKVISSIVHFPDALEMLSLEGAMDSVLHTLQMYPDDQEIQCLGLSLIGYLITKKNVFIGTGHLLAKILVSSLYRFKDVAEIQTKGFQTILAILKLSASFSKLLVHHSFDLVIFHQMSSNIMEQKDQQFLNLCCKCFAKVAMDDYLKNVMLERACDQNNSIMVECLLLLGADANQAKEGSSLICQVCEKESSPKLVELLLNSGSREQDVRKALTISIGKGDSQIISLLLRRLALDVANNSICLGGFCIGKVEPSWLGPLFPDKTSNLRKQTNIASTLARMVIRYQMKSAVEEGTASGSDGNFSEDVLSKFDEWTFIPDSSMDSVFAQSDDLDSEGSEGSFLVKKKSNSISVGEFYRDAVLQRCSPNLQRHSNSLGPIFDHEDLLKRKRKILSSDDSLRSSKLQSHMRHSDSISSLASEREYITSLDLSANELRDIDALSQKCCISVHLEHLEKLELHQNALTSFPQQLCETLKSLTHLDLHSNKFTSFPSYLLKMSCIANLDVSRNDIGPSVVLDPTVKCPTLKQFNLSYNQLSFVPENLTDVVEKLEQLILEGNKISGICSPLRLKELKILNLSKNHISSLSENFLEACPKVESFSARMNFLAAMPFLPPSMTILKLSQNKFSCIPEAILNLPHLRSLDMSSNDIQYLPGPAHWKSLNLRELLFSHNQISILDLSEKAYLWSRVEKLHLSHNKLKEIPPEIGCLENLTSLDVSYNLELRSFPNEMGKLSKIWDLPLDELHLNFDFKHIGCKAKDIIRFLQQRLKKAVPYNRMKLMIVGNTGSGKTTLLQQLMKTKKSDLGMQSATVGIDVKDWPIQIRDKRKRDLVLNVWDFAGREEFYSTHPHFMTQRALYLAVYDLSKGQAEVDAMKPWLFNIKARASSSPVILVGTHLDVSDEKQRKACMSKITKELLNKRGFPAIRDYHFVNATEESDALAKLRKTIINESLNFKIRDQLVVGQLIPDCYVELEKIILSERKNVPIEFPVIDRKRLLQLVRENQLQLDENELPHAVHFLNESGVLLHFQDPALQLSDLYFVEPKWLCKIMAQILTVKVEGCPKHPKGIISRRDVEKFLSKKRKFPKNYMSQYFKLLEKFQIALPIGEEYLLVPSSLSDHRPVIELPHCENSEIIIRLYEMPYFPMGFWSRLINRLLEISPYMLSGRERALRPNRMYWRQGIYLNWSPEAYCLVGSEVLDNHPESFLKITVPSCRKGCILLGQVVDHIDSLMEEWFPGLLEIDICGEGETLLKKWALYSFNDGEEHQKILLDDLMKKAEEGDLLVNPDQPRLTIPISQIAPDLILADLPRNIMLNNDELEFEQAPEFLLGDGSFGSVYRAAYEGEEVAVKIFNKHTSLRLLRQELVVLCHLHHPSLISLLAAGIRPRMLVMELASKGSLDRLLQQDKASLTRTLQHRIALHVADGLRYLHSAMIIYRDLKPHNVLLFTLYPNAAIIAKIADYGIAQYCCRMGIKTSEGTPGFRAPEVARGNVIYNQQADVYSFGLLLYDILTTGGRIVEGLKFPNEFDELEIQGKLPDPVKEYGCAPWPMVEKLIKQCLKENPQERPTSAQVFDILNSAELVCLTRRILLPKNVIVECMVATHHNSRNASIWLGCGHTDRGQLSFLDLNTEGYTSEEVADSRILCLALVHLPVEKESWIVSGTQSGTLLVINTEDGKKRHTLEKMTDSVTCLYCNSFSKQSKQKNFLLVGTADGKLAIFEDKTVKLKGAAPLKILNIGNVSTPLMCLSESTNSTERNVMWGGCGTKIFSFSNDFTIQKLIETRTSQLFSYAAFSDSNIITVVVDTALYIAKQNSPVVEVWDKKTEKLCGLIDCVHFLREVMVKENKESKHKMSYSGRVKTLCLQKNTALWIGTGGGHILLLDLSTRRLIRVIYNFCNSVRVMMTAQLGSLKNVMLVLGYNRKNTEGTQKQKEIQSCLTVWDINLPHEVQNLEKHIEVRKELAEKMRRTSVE

[28] = molecular target: T26, p38-alpha (Homo sapiens, UniProt Q16539); experiment: KINOMEscan; assay type: binding; conditions: read-out: %Ctrl @ 10000nM
T26 construct: purchased DiscoverX KINOMEscan
T26 sequence (Q16539 whole entry): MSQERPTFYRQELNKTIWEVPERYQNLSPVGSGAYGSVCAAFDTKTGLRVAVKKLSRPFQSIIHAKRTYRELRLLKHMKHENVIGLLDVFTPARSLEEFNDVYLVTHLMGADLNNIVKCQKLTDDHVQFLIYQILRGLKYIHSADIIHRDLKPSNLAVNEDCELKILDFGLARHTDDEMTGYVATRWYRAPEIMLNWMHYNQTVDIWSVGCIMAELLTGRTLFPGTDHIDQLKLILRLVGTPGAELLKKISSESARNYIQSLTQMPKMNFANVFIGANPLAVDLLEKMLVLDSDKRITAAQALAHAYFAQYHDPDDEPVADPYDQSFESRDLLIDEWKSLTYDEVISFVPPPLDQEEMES

[29] = molecular target: T27, PKNB(M.tuberculosis) (Mycobacterium tuberculosis, UniProt P9WI81); experiment: KINOMEscan; assay type: binding; conditions: read-out: %Ctrl @ 10000nM
T27 construct: purchased DiscoverX KINOMEscan

[30] = molecular target: T28, MARK3 (Homo sapiens, UniProt P27448); experiment: KINOMEscan; assay type: binding; conditions: read-out: %Ctrl @ 10000nM
T28 construct: purchased DiscoverX KINOMEscan

[31] = molecular target: T29, ZAK (Homo sapiens, UniProt Q9NYL2); experiment: KINOMEscan; assay type: binding; conditions: read-out: %Ctrl @ 10000nM
T29 construct: purchased DiscoverX scanMAX; host or cells: E. coli BL21-derived host (T7 phage) or HEK-293

[32] = molecular target: T30, RPS6KA4(Kin.Dom.2-C-terminal) (Homo sapiens, UniProt O75676); experiment: KINOMEscan; assay type: binding; conditions: read-out: %Ctrl @ 10000nM
T30 construct: RPS6KA4(Kin.Dom.2-C-terminal); purchased DiscoverX KINOMEscan

[33] = molecular target: T31, CHEK1 (Homo sapiens, UniProt O14757); experiment: KINOMEscan; assay type: binding; conditions: read-out: %Ctrl @ 10000nM
T31 construct: purchased DiscoverX KINOMEscan

[34] = molecular target: T32, CIT (Homo sapiens, UniProt O14578); experiment: KINOMEscan; assay type: binding; conditions: read-out: %Ctrl @ 10000nM
T32 construct: purchased DiscoverX KINOMEscan

[35] = molecular target: T33, PKN1 (Homo sapiens, UniProt Q16512); experiment: KINOMEscan; assay type: binding; conditions: read-out: %Ctrl @ 10000nM
T33 construct: purchased DiscoverX KINOMEscan
T33 sequence (Q16512 whole entry): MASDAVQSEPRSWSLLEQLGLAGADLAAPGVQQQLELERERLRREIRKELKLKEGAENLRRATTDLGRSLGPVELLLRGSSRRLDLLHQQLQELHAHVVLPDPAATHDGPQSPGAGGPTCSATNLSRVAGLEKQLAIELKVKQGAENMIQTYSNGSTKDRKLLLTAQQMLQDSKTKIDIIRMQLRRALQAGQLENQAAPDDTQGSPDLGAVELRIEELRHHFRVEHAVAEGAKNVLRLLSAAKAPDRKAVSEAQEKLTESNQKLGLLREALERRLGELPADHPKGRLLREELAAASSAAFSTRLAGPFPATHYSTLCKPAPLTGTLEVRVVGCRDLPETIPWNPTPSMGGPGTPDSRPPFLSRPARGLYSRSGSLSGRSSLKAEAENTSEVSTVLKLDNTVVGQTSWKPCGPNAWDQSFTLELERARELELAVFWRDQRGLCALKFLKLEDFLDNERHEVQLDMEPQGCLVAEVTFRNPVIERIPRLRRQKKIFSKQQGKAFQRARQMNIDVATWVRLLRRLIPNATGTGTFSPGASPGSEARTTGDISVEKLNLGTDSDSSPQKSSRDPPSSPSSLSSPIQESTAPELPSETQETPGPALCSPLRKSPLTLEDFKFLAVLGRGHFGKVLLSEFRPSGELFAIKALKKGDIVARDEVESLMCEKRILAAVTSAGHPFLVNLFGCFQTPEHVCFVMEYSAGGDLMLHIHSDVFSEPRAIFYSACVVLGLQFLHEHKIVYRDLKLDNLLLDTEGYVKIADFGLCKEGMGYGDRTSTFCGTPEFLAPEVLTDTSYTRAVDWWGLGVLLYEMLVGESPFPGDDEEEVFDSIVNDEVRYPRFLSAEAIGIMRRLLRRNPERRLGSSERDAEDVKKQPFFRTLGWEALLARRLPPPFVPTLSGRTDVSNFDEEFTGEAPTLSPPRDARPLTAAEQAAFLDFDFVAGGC

[36] = molecular target: T34, ABL1(E255K)-phosphorylated (Homo sapiens, UniProt P00519, E255K); experiment: KINOMEscan; assay type: binding; conditions: read-out: %Ctrl @ 10000nM
T34 construct: purchased DiscoverX KINOMEscan

[37] = molecular target: T35, RPS6KA5(Kin.Dom.2-C-terminal) (Homo sapiens, UniProt O75582); experiment: KINOMEscan; assay type: binding; conditions: read-out: %Ctrl @ 10000nM
T35 construct: RPS6KA5(Kin.Dom.2-C-terminal); purchased DiscoverX KINOMEscan

[38] = molecular target: T36, FLT3(D835H) (Homo sapiens, UniProt P36888, D835H); experiment: KINOMEscan; assay type: binding; conditions: read-out: %Ctrl @ 10000nM
T36 construct: purchased DiscoverX KINOMEscan

[39] = molecular target: T37, CSNK1E (Homo sapiens, UniProt P49674); experiment: KINOMEscan; assay type: binding; conditions: read-out: %Ctrl @ 10000nM
T37 construct: purchased DiscoverX KINOMEscan
T37 sequence (P49674 whole entry): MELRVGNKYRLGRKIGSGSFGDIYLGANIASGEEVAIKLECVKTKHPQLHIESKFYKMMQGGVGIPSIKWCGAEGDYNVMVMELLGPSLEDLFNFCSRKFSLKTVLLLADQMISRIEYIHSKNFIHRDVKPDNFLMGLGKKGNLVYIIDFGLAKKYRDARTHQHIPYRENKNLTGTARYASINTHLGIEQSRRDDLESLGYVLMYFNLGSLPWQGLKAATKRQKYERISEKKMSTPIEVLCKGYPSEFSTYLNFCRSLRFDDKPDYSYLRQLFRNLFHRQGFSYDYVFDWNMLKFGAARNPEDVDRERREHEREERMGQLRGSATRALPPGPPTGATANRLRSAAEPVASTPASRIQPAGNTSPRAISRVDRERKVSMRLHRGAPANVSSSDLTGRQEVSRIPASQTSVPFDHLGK

[40] = molecular target: T38, QSK (Homo sapiens, UniProt Q9Y2K2); experiment: KINOMEscan; assay type: binding; conditions: read-out: %Ctrl @ 10000nM
T38 construct: purchased DiscoverX KINOMEscan

[41] = molecular target: T39, PAK6 (Homo sapiens, UniProt Q9NQU5); experiment: KINOMEscan; assay type: binding; conditions: read-out: %Ctrl @ 10000nM
T39 construct: purchased DiscoverX KINOMEscan

CC(C)c1ccc(CC(=O)N2CCN(c3ccc(C#N)nn3)CC2)cc1 [PZ-2891, 6-(4-(2-(4-isopropylphenyl)acetyl)piperazin-1-yl)pyridazine-3-carbonitrile] showed a remaining binding at 10 µM [1] of 78%, a remaining binding at 10 µM [2] of 98% and a remaining binding at 10 µM [3] of 88%. The remaining binding at 10 µM [4] was 79%, the remaining binding at 10 µM [5] was 74% and the remaining binding at 10 µM [6] was 99%. For the same compound, the remaining binding at 10 µM [7] was 96%, the “PAMPA; Avg Pe” value [8] was 413 10-6 cm/s and the remaining binding at 10 µM [9] was 83%. It also gave a remaining binding at 10 µM [10] of 100%, a remaining binding at 10 µM [11] of 82% and a remaining binding at 10 µM [12] of 74%. For the same compound, the remaining binding at 10 µM [13] was 96%, the remaining binding at 10 µM [14] was 75% and the remaining binding at 10 µM [15] was 97%. It also gave a remaining binding at 10 µM [16] of 70%, a remaining binding at 10 µM [17] of 79% and a remaining binding at 10 µM [18] of 72%. The remaining binding at 10 µM [19] was 93%, the remaining binding at 10 µM [20] was 75% and the remaining binding at 10 µM [21] was 85%. The remaining binding at 10 µM [22] was 88%, the remaining binding at 10 µM [23] was 93% and the remaining binding at 10 µM [24] was 97%. The remaining binding at 10 µM [25] was 85%, the fraction unbound [26] was 0.09 and the remaining binding at 10 µM [27] was 100%. The remaining binding at 10 µM [28] was 100%, the remaining binding at 10 µM [29] was 74% and the remaining binding at 10 µM [30] was 84%. The remaining binding at 10 µM [31] was 88%, the remaining binding at 10 µM [32] was 67% and the remaining binding at 10 µM [33] was 83%. It also gave a remaining binding at 10 µM [34] of 97%, a remaining binding at 10 µM [35] of 69% and a remaining binding at 10 µM [36] of 53%. It also gave a remaining binding at 10 µM [37] of 96%, a remaining binding at 10 µM [38] of 92% and a remaining binding at 10 µM [39] of 97%. For the same compound, the remaining binding at 10 µM [40] was 82% and the remaining binding at 10 µM [41] was 100%.
